In the supplement of paper PMC10307832:

Columns and labels:
Assay in all cases: relative viability (nuclei count vs DMSO), 5 days (fraction); higher = more cells survive
[1] = compound: C1COCCN1C2=NC(=NC3=C2OC4=C3C=CC=N4)C5=CC(=CC=C5)NC(=O)C6=CN=C(C=C6)N + C[C@]1(O)C[C@@H](c2nc(-c3ccc4ccc(-c5ccccc5)nc4c3)c3c(N)nccn32)C1 [Linsitinib] (partner 1 µM)
In short: (§1)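 Lung cancer cell lines in 1536-well plates got either a single drug or a fixed anchor-drug dose together with five library-drug doses (not always all listed) in √10 steps, by pin tool, on the day after seeding. Nuclei were counted after 5 days, and relative viability is the treated-to-vehicle ratio of nuclei counts. Values are medians of duplicate plates.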

[2] = compound: C1COCCN1C2=NC(=NC3=C2OC4=C3C=CC=N4)C5=CC(=CC=C5)NC(=O)C6=CN=C(C=C6)N + C[C@@H](Oc1cc(-c2cnn(C3CCNCC3)c2)cnc1N)c1c(Cl)ccc(F)c1Cl [Crizotinib] (partner 1 µM)
In short: as §1

Entinostat + Bortezomib = compound: Nc1ccccc1NC(=O)c1ccc(CNC(=O)OCc2cccnc2)cc1 [Entinostat] + CC(C)C[C@H](NC(=O)[C@H](Cc1ccccc1)NC(=O)c1cnccn1)B(O)O [Bortezomib] (partner 0.002 µM)
In short: as §1

[3] = compound: C1COCCN1C2=NC(=NC3=C2OC4=C3C=CC=N4)C5=CC(=CC=C5)NC(=O)C6=CN=C(C=C6)N + Nc1ncn([C@H]2C[C@H](O)[C@@H](CO)O2)c(=O)n1 [Decitabine] (partner 2 µM)
In short: as §1

Cell Line	relative viability ([1]; first compound 0.06325 µM)	relative viability ([1]; first compound 0.2 µM)	relative viability ([1]; first compound 0.6325 µM)	relative viability ([1]; first compound 2 µM)	relative viability ([2]; first compound 0.06325 µM)	relative viability ([2]; first compound 0.2 µM)	relative viability ([2]; first compound 0.6325 µM)	relative viability ([2]; first compound 2 µM)	relative viability (Entinostat + Bortezomib; first compound 0.02 µM)	relative viability (Entinostat + Bortezomib; first compound 0.06325 µM)	relative viability (Entinostat + Bortezomib; first compound 0.2 µM)	relative viability (Entinostat + Bortezomib; first compound 0.6325 µM)	relative viability (Entinostat + Bortezomib; first compound 2 µM)	relative viability ([3]; first compound 0.02 µM)	relative viability ([3]; first compound 0.06325 µM)	relative viability ([3]; first compound 0.2 µM)	relative viability ([3]; first compound 0.6325 µM)	relative viability ([3]; first compound 2 µM)	relative viability ([1]; first compound 0.02 µM)	relative viability ([2]; first compound 0.02 µM)
LCLC-97TM1	0.199	0.174	0.232	0.22	0.407	0.321	0.341	0.308	0.69	0.912	0.912	0.355	0.128	0.286	0.236	0.241	0.333	0.236		
LCLC-103H	1.15	1.21	1.03	0.978	1.15	1.09	0.957	0.974	1.05	1.04	1.11	0.868	0.498	0.724	0.723	0.731	0.733	0.527	1.05	1.03
LOU-NH91	0.998	0.989	0.92	0.769	0.755	0.76	0.74	0.664	0.496	0.52	0.534	0.545	0.512	0.792	0.843	0.822	0.794	0.746	0.893	0.729
LU99A	0.583	0.435	0.353	0.236	0.65	0.477	0.49	0.327	1.02	1.26	1	0.801	0.784	0.864	0.745	0.937	0.806	0.445	0.517	0.602
LXF-289	1.07	0.975	0.986	0.76	0.903	0.821	0.858	0.604	1.01	0.986	0.96	0.725	0.646	0.36	0.438	0.329	0.457	0.409	1.02	0.859
NCI-H23	0.576	0.499	0.534	0.497	0.487	0.38	0.511	0.344	0.91	1.41	1.12	0.808	0.497	0.285	0.371	0.288	0.378	0.277	0.6	0.56
NCI-H322M	0.981	0.884	0.924	0.759	0.991	0.879	0.934	0.657	1.33	1.33	1.31	1.27	1.3	0.708	0.64	0.695	0.69	0.64	0.817	0.854
NCI-H441	0.609	0.569	0.534	0.357	0.679	0.688	0.923	0.415	0.443	0.598	0.409	0.181	0.118	0.23	0.298	0.27	0.326	0.248	0.522	0.71
NCI-H460	0.959	0.834	0.583	0.225	1.03	0.913	0.927	0.144	1.09	1.05	0.85	0.0581	0.0179	0.55	0.563	0.517	0.525	0.195	0.839	1.16
NCI-H520	1.08	1.07	1.08	0.373	0.775	0.803	0.756	0.443	0.602	0.667	0.558	0.195	0.161	0.47	0.521	0.588	0.55	0.44	1.09	0.925
NCI-H596	1.15	1.1	0.96	0.727	0.983	0.99	0.942	0.746	1.09	1.16	1	0.974	0.902	0.951	0.971	1.15		1.07	0.959	1.1
NCI-H647	1.27	1.19	0.901	0.588	1.17	0.943	1.09	0.283	1.02	1.01	0.869	0.216	0.0717	0.524	0.478	0.527	0.519	0.325	1.11	1.16
NCI-H650	0.876	0.857	0.837	0.659	0.713	0.798	0.755	0.559	1.02	0.916	0.773	0.426	0.171	0.315	0.361	0.333	0.443	0.494	0.876	0.654
NCI-H661	0.645	0.645	0.421	0.386	1.27	0.971	1.12	0.932	0.956	0.883	0.861	0.781	0.7	0.593	0.578	0.603	0.63	0.444	0.533	1.16
NCI-H727	0.31	0.24	0.257	0.256	0.962	0.739	0.725	0.505	0.714	0.965	0.754	0.574	0.329	0.884	0.851	0.785	1	0.862	0.284	0.908
NCI-H838	1.08	0.933	0.78	0.371	0.809	0.674	0.722	0.439	0.959	1.21	0.947	0.634	0.385	0.437	0.437	0.413	0.5	0.371	0.977	0.901

Cell Line	relative viability ([1]; first compound 0.06325 µM)	relative viability ([1]; first compound 0.2 µM)	relative viability ([1]; first compound 0.6325 µM)	relative viability ([1]; first compound 2 µM)	relative viability ([2]; first compound 0.06325 µM)	relative viability ([2]; first compound 0.2 µM)	relative viability ([2]; first compound 0.6325 µM)	relative viability ([2]; first compound 2 µM)	relative viability (Entinostat + Bortezomib; first compound 0.02 µM)	relative viability (Entinostat + Bortezomib; first compound 0.06325 µM)	relative viability (Entinostat + Bortezomib; first compound 0.2 µM)	relative viability (Entinostat + Bortezomib; first compound 0.6325 µM)	relative viability (Entinostat + Bortezomib; first compound 2 µM)	relative viability ([3]; first compound 0.02 µM)	relative viability ([3]; first compound 0.06325 µM)	relative viability ([3]; first compound 0.2 µM)	relative viability ([3]; first compound 0.6325 µM)	relative viability ([3]; first compound 2 µM)	relative viability ([1]; first compound 0.02 µM)	relative viability ([2]; first compound 0.02 µM)
NCI-H1355	0.933	0.815	0.789	0.68	1.21	1.07	1.02	0.936	1.19	1.16	0.951	0.725	0.603	0.377	0.374	0.372	0.43	0.418	0.871	0.969
NCI-H1437	1.08	1.07	1.01	0.314	1.11	0.827	0.964	0.401	0.438	0.323	0.239	0.168	0.126	0.574	0.646	0.615	0.696	0.458	1.05	0.95
NCI-H1651	0.917	0.957	1.09	0.357	0.894	0.854	0.865	0.671	0.958	0.923	0.921	0.926	0.84	0.65	0.643	0.614	0.66	0.568	0.996	0.835
NCI-H1666	0.908	0.804	0.817	0.681	1.08	0.82	1.03	0.619	0.855	0.694	0.741	0.441	0.321	0.815	0.752	0.692	0.715	0.623	0.867	0.743
NCI-H1734	0.938	0.86	0.84	0.467	0.731	0.612	0.636	0.345	0.895	1.1	1.06	0.753	0.472	0.534	0.575	0.482	0.537	0.484	0.865	0.73
NCI-H1755	1.01	0.992	0.94	0.509	0.978	0.811	0.773	0.34	0.932	0.956	0.9	0.534	0.321	0.693	0.71	0.714	0.722	0.628	1.02	0.969
NCI-H1792	0.508	0.565	0.257	0.468	0.946	1.01	0.767	0.382	0.952	0.992	1.03	0.802	0.606	0.688	0.66	0.519	0.531	0.213	0.608	1.2
NCI-H1915	1.14	1.13	1.11	1.08	1	0.983	0.907	0.494	1.05	0.959	0.998	0.644	0.638	0.255	0.261	0.26	0.559	0.335	1.08	0.887
NCI-H1975	0.983	0.897	0.905	0.476	1.15	0.929	1.07	0.418	0.355	0.309	0.271	0.182	0.163	0.347	0.396	0.37	0.381	0.371	0.882	0.993
NCI-H1993	0.627	0.689	0.74	0.667	0.856	0.805	0.899	0.789	1.1	1.16	1	0.723	0.543	0.549	0.293	0.531	0.547	0.57	0.768	0.821
NCI-H2009	1.2	1.17	1.17	0.871	1.11	0.927	1.07	0.72	1.03	1.05	0.912	0.814	0.497	0.373	0.367	0.415	0.456	0.395	1.29	0.984
NCI-H2023	0.755	0.602	0.543	0.333	0.711	0.49	0.56	0.257	0.859	0.85	0.411	0.166	0.105	0.248	0.246	0.23	0.325	0.191	0.639	0.669
NCI-H2085	1.02	0.885	0.82	0.456	0.947	0.817	0.887	0.522	1.03	1.12	1.04	0.683	0.604	0.486	0.626	0.57	0.649	0.559	0.839	0.971
NCI-H2087	0.883	0.985	0.969	0.573	0.936	0.925	0.892	0.531	0.883	0.837	0.761	0.425	0.274	0.267	0.281	0.255	0.332	0.211	0.988	0.979
NCI-H2126	0.79	0.68	0.581	0.601	1.09	1.06	1	0.645	1.13	1.11	1.1	0.885	0.809	0.54	0.608	0.606	0.613	0.503	0.73	1.04
NCI-H2347	0.966	0.979	0.98	0.877	0.678	0.744	0.759	0.649	0.969	1.01	0.557	0.318	0.262	0.603	0.657	0.651	0.755	0.575	0.917	0.603
